Results: patent US20180199575A1, “SUBSTITUTED OXOTETRAHYDROQUINOLINYLPHOSPHINIC ACID AND PHOSPHINIC ACID AMIDES OR SALTS THEREOF AND USE THEREOF TO INCREASE STRESS TOLERANCE IN PLANTS” (priority 2015, published 2018)

Molecular target: T1, phosphatase ABI1 via the co-regulator RCAR11/PYR1 (Arabidopsis thaliana, UniProt O49686+P49597)
T1 sequence (O49686 1-191): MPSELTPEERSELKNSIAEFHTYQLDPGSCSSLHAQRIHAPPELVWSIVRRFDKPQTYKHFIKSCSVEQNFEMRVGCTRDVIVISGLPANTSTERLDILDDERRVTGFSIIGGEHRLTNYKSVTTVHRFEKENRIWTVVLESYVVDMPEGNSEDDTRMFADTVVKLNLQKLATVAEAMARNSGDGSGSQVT
T1 sequence (P49597 1-434): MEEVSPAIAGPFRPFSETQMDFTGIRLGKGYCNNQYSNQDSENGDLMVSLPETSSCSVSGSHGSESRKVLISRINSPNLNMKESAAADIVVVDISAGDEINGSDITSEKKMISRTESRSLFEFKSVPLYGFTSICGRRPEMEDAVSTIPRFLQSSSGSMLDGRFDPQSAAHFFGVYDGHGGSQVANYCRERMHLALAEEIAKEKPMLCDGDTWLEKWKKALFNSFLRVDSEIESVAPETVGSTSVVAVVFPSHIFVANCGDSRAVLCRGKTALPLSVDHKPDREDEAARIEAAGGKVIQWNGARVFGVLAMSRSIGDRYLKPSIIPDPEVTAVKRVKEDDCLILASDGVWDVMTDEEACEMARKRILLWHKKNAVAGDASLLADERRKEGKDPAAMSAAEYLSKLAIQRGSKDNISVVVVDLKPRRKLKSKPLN
Test: In vitro assay: inhibition of the phosphatase ABI1 via the co-regulator RCAR11/PYR1 (dephosphorylation of 4-methylumbelliferyl phosphate, fluorescence)
Assay type: biochemical
Settings: 5 μM substance in a solution of DMSO and water, MUP substrate
Text: Effects of the phytohormone abscisic acid (ABA) on the behavior of plants under abiotic stress and the mechanism of action of ABA are described in the literature (cf. Abrams et al., WO97/23441, Park et al. Science, 2009, 324, 1068; Grill et al. Science, 2009, 324, 1064; Tanokura et al. Biophysics, 2011, 7, 123; Schroeder et al. Plant J. 2010, 61, 290). Therefore, it is possible with the aid of a suitable in vitro test system to derive a correlation between the action of ABA and the stress response of a plant under abiotic stress. In the event of water deficiency (drought stress), plants form the phytohormone abscisic acid (ABA). […]
The assay described hereinafter utilizes the inhibition of the phosphatase ABI1 via the co-regulator RCAR11/PYR1 aus Arabidopsis thaliana. For the determination of activity, the dephosphorylation of 4-methylumbelliferyl phosphate (MUP) was measured at 460 nm. […]
Enzyme buffer mix and substrate mix were made up 5 minutes prior to the addition and warmed to a temperature of 35° C. […] Finally, a relative fluorescence measurement was made at 35° C. with a BMG Labtech “POLARstar Optima” microplate reader using a 340/10 nm excitation filter and a 460 nm emission filter. […]

SMILES: CC1=CC(=O)CC(C)(C)[C@@]1(O)/C=C/C(C)=C\C(=O)O [abscisic acid]
- ABI1 inhibition: ++++ (inhibition≥90%)
